US11000033B2, “Ketone or oxime compound, and herbicide” (NISSAN CHEMICAL CORPORATION, priority 2014, dated 2021)

Tests used:
Assay type in all cases: in vivo
rice = assay: Test Example 4: effect on crop by soil treatment (symbol b); settings: for b: directly sowed rice plant, effect grade on crop: 320 g/ha; for b: directly sowed rice plant, effect on crop grade: application herbicide amount 320 g/ha
Method in brief: (§1)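 Soil-treatment setup: crop and weed seeds were spot-sown into sterilized diluvial soil, then buried beneath approximately 1.5 cm of it, and the boxes were housed in a 25–30° C. greenhouse.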

Galium spurium = assay: Test Example 5: herbicidal effect by foliage application, plastic box (symbol Q); settings: 320 g/ha, 3 weeks after application
Method in brief: (§2)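 Emulsion formulation, diluted with water to the intended rate, was applied uniformly to leaves by small sprayer. Recipients were 14-day greenhouse-grown seedlings (25° C. to 30° C.). Assessment followed at 3 weeks.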

beet = assay: Test Example 4: effect on crop by soil treatment (symbol f); settings: for f: beet, effect grade on crop: 320 g/ha; for f: beet, effect on crop grade: application herbicide amount 320 g/ha
Method in brief: as §1

Veronica persica = assay: Test Example 5: herbicidal effect by foliage application, plastic box (symbol R); settings: 320 g/ha, 3 weeks after application
Method in brief: as §2

rapeseed = assay: Test Example 5: effect on crop by foliage application, plastic box (symbol g); settings: 320 g/ha, 3 weeks after application
Method in brief: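 A greenhouse held between 25° C. and 30° C. was used to grow plants sown spot-wise, beneath ~1.5 cm of soil, in boxes of sterilized diluvial soil.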

Leptochloa chinensis = assay: Test Example 3: herbicidal effect by foliage application, Wagner pot (symbol D); settings: application herbicide amount 320 g/ha
Method in brief: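 Seeds sown in alluvial soil kept under 0.1–0.5 cm water, greenhouse 25–30 °C; 14 d growth. Leaves treated by small sprayer with water-diluted emulsion at a predetermined rate. Effect graded by set scale, 3 weeks.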

Digitaria ciliaris = assay: Test Example 5: herbicidal effect by foliage application, plastic box (symbol F); settings: 320 g/ha, 3 weeks after application
Method in brief: as §2

[1] = test system: directly sowed rice plant; assay: Test Example 3: effect on crop by foliage application, Wagner pot (symbol b); settings: application herbicide amount 320 g/ha
Method in brief: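 Steps: fill a 1/10000-are Wagner pot with alluvial soil; add water and mix to submerge at 0.1–0.5 cm depth; sow rice plus Echinochloa crus-galli var. crus-galli, Leptochloa chinensis and Cyperus difformis; grow in a 25–30 °C greenhouse.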

soybean = assay: Test Example 4: effect on crop by soil treatment (symbol d); settings: for d: soybean, effect grade on crop: 320 g/ha; for d: soybean, effect on crop grade: application herbicide amount 320 g/ha
Method in brief: as §1

Alopecurus myosuroides [2] = assay: Test Example 5: herbicidal effect by foliage application, plastic box (symbol J); settings: 320 g/ha, 3 weeks after application
Method in brief: as §2

Chenopodium album = assay: Test Example 5: herbicidal effect by foliage application, plastic box (symbol O); settings: 320 g/ha, 3 weeks after application
Method in brief: as §2

[3] = test system: Echinochloa crus-galli var. crus-galli; assay: Test Example 5: herbicidal effect by foliage application, plastic box (symbol H); settings: 320 g/ha, 3 weeks after application
Method in brief: as §2

Scirpus juncoides = assay: Test Example 1: herbicidal activity, application before weed generation in submerged conditions (symbol B); settings: application herbicide amount 320 g/ha
Method in brief: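 Application before weed emergence: an aqueous dilution of the emulsion formulation was poured onto the surface of 4 cm-deep floodwater on the day of sowing. Effect was judged after 3 weeks (greenhouse, 25–30 °C).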

Apera spica-venti = assay: Test Example 5: herbicidal effect by foliage application, plastic box (symbol L); settings: 320 g/ha, 3 weeks after application
Method in brief: as §2

Alopecurus myosuroides [4] = assay: Test Example 4: herbicidal effect by soil treatment (symbol J)
Method in brief: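 Seeds were sown in sterilized diluvial soil, covered with about 1.5 cm of soil, and the soil surface was sprayed with a water-diluted emulsion of the compound at a predetermined rate. Plants grew in a greenhouse at 25° C. to 30° C.; effects were scored visually 3 weeks after application.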

[5] = application herbicide amount 320 g/ha

In the case of `COC(=O)C(C(C)=O)C1CC(O)=C(c2c(C)cc(C)cc2C)C1=O` (stereo not drawn) [2-003], the “b: directly sowed rice plant, effect grade on crop” value (rice) is reported as 2 (Herbicidal ratio of 20% or higher and lower than 40%), the “Q: Galium spurium, herbicidal effect grade” value (Galium spurium) is reported as 0 (Herbicidal ratio of 5% or lower (almost no effect)) and the “f: beet, effect grade on crop” value (beet) is reported as 0 (Herbicidal ratio of 5% or lower (almost no effect)). The “R: Veronica persica, herbicidal effect grade” value (Veronica persica) was 3 (Herbicidal ratio of 40% or higher and lower than 70%), the “g: rapeseed, effect on crop grade” value (rapeseed) was 3 (Herbicidal ratio of 40% or higher and lower than 70%) and the “herbicidal effect on D (Leptochloa chinensis), grade 0-5” value (“herbicidal effect on D” for short) (Leptochloa chinensis) was 5 (Herbicidal ratio of 90% or more (almost completely withered)). The “F: Digitaria ciliaris, herbicidal effect grade” value (Digitaria ciliaris) was 4 (Herbicidal ratio of 70% or higher and lower than 90%), the “effect on crop b (directly sowed rice plant), grade 0-5” value (“effect on crop b” for short) [1] was 4 (Herbicidal ratio of 70% or higher and lower than 90%) and the “d: soybean, effect grade on crop” value (soybean) was 0 (Herbicidal ratio of 5% or lower (almost no effect)). For the same molecule, the “J: Alopecurus myosuroides, herbicidal effect grade” value (Alopecurus myosuroides [2]) was 5 (Herbicidal ratio of 90% or more (almost completely withered)), the “O: Chenopodium album, herbicidal effect grade” value (Chenopodium album) was 0 (Herbicidal ratio of 5% or lower (almost no effect)) and the “H: Echinochloa crus-galli var. crus-galli, herbicidal effect grade” value [3] was 5 (Herbicidal ratio of 90% or more (almost completely withered)). The “Herbicidal effect grade, B: Scirpus juncoides” value (shortened to “Herbicidal effect grade, B”) (Scirpus juncoides) was 0 (Herbicidal ratio of 5% or lower (almost no effect)), the “L: Apera spica-venti, herbicidal effect grade” value (Apera spica-venti) was 4 (Herbicidal ratio of 70% or higher and lower than 90%) and the “J: Alopecurus myosuroides, herbicidal effect grade” value (Alopecurus myosuroides [4]; 320 g/ha) was 4 (Herbicidal ratio of 70% or higher and lower than 90%).
With `CON=C(C)CC1CC(O)=C(c2c(C)cc(-c3cccc(Cl)c3)cc2C)C1=O` (mixture of isomers) [6-034] the “b: directly sowed rice plant, effect on crop grade” value (rice) was 2 (Herbicidal ratio of 20% or higher and lower than 40%), the “Q: Galium spurium, herbicidal effect grade” value (Galium spurium) was 5 (Herbicidal ratio of 90% or more (almost completely withered)) and the “f: beet, effect on crop grade” value (beet) was 0 (Herbicidal ratio of 5% or lower (almost no effect)). The “R: Veronica persica, herbicidal effect grade” value (Veronica persica) was 3 (Herbicidal ratio of 40% or higher and lower than 70%), the “g: rapeseed, effect on crop grade” value (rapeseed) was 4 (Herbicidal ratio of 70% or higher and lower than 90%) and the “herbicidal effect on D” value (Leptochloa chinensis) was 5 (Herbicidal ratio of 90% or more (almost completely withered)). For the same molecule, the “F: Digitaria ciliaris, herbicidal effect grade” value (Digitaria ciliaris) was 5 (Herbicidal ratio of 90% or more (almost completely withered)), the “effect on crop b” value [1] was 5 (Herbicidal ratio of 90% or more (almost completely withered)) and the “d: soybean, effect on crop grade” value (soybean) was 0 (Herbicidal ratio of 5% or lower (almost no effect)). The “J: Alopecurus myosuroides, herbicidal effect grade” value (Alopecurus myosuroides [2]) was 5 (Herbicidal ratio of 90% or more (almost completely withered)), the “O: Chenopodium album, herbicidal effect grade” value (Chenopodium album) was 3 (Herbicidal ratio of 40% or higher and lower than 70%) and the “H: Echinochloa crus-galli var. crus-galli, herbicidal effect grade” value [3] was 5 (Herbicidal ratio of 90% or more (almost completely withered)). The “Herbicidal effect grade, B” value (Scirpus juncoides) was 5 (Herbicidal ratio of 90% or more (almost completely withered)), the “L: Apera spica-venti, herbicidal effect grade” value (Apera spica-venti) was 5 (Herbicidal ratio of 90% or more (almost completely withered)) and the “J: Alopecurus myosuroides, herbicidal effect grade” value (Alopecurus myosuroides [4]; [5]) was 5 (Herbicidal ratio of 90% or more (almost completely withered)).
With `CCOC(=O)C(C(=O)C(F)(F)F)C1CC(O)=C(c2c(C)cc(C)cc2C)C1=O` (stereo not drawn) [2-010] the “b: directly sowed rice plant, effect on crop grade” value (rice) was 0 (Herbicidal ratio of 5% or lower (almost no effect)), the “Q: Galium spurium, herbicidal effect grade” value (Galium spurium) was 0 (Herbicidal ratio of 5% or lower (almost no effect)) and the “f: beet, effect on crop grade” value (beet) was 0 (Herbicidal ratio of 5% or lower (almost no effect)). The “R: Veronica persica, herbicidal effect grade” value (Veronica persica) was 0 (Herbicidal ratio of 5% or lower (almost no effect)), the “g: rapeseed, effect on crop grade” value (rapeseed) was 0 (Herbicidal ratio of 5% or lower (almost no effect)) and the “herbicidal effect on D” value (Leptochloa chinensis) was 0 (Herbicidal ratio of 5% or lower (almost no effect)). For the same molecule, the “F: Digitaria ciliaris, herbicidal effect grade” value (Digitaria ciliaris) was 0 (Herbicidal ratio of 5% or lower (almost no effect)), the “effect on crop b” value [1] was 1 (Herbicidal ratio of 5% or higher and lower than 20%) and the “d: soybean, effect on crop grade” value (soybean) was 0 (Herbicidal ratio of 5% or lower (almost no effect)). The “J: Alopecurus myosuroides, herbicidal effect grade” value (Alopecurus myosuroides [2]) was 0 (Herbicidal ratio of 5% or lower (almost no effect)), the “O: Chenopodium album, herbicidal effect grade” value (Chenopodium album) was 0 (Herbicidal ratio of 5% or lower (almost no effect)) and the “H: Echinochloa crus-galli var. crus-galli, herbicidal effect grade” value [3] was 0 (Herbicidal ratio of 5% or lower (almost no effect)). For the same molecule, the “Herbicidal effect grade, B” value (Scirpus juncoides) was 0 (Herbicidal ratio of 5% or lower (almost no effect)), the “L: Apera spica-venti, herbicidal effect grade” value (Apera spica-venti) was 0 (Herbicidal ratio of 5% or lower (almost no effect)) and the “J: Alopecurus myosuroides, herbicidal effect grade” value (Alopecurus myosuroides [4]; [5]) was 0 (Herbicidal ratio of 5% or lower (almost no effect)).
For `CON=C(C)CC1CC(OS(=O)(=O)C2CC2)=C(c2c(C)cc(C)cc2C)C1=O` (stereo not drawn) [1-143], the “b: directly sowed rice plant, effect grade on crop” value (rice) was 0 (Herbicidal ratio of 5% or lower (almost no effect)), the “Q: Galium spurium, herbicidal effect (criteria 0-5)” value (Galium spurium) was 0 (Herbicidal ratio of 5% or lower (almost no effect)) and the “f: beet, effect grade on crop” value (beet) was 0 (Herbicidal ratio of 5% or lower (almost no effect)). For the same molecule, the “R: Veronica persica, herbicidal effect (criteria 0-5)” value (Veronica persica) was 0 (Herbicidal ratio of 5% or lower (almost no effect)), the “g: rapeseed, effect on crop (criteria 0-5)” value (rapeseed) was 4 (Herbicidal ratio of 70% or higher and lower than 90%) and the “herbicidal effect on D” value (Leptochloa chinensis) was 4 (Herbicidal ratio of 70% or higher and lower than 90%). The “F: Digitaria ciliaris, herbicidal effect (criteria 0-5)” value (Digitaria ciliaris) was 5 (Herbicidal ratio of 90% or more (almost completely withered)), the “effect on crop b” value [1] was 5 (Herbicidal ratio of 90% or more (almost completely withered)) and the “d: soybean, effect grade on crop” value (soybean) was 0 (Herbicidal ratio of 5% or lower (almost no effect)). The “J: Alopecurus myosuroides, herbicidal effect (criteria 0-5)” value (Alopecurus myosuroides [2]) was 5 (Herbicidal ratio of 90% or more (almost completely withered)), the “O: Chenopodium album, herbicidal effect (criteria 0-5)” value (Chenopodium album) was 0 (Herbicidal ratio of 5% or lower (almost no effect)) and the “H: Echinochloa crus-galli var. crus-galli, herbicidal effect (criteria 0-5)” value [3] was 5 (Herbicidal ratio of 90% or more (almost completely withered)). The “Herbicidal effect grade, B” value (Scirpus juncoides) was 4 (Herbicidal ratio of 70% or higher and lower than 90%), the “L: Apera spica-venti, herbicidal effect (criteria 0-5)” value (Apera spica-venti) was 5 (Herbicidal ratio of 90% or more (almost completely withered)) and the “J: Alopecurus myosuroides, herbicidal effect grade” value (Alopecurus myosuroides [4]; 320 g/ha) was 2 (Herbicidal ratio of 20% or higher and lower than 40%).
In the case of `CON=C(C)CC1CC(OS(=O)(=O)c2ccc(C)cc2)=C(c2c(C)cc(C)cc2C)C1=O` (stereo not drawn) [1-161], the “b: directly sowed rice plant, effect grade on crop” value (rice) is reported as 3 (Herbicidal ratio of 40% or higher and lower than 70%), the “Q: Galium spurium, herbicidal effect grade” value (Galium spurium) is reported as 0 (Herbicidal ratio of 5% or lower (almost no effect)) and the “f: beet, effect grade on crop” value (beet) is reported as 0 (Herbicidal ratio of 5% or lower (almost no effect)). The “R: Veronica persica, herbicidal effect grade” value (Veronica persica) was 0 (Herbicidal ratio of 5% or lower (almost no effect)), the “g: rapeseed, effect on crop grade” value (rapeseed) was 3 (Herbicidal ratio of 40% or higher and lower than 70%) and the “herbicidal effect on D” value (Leptochloa chinensis) was 5 (Herbicidal ratio of 90% or more (almost completely withered)). The “F: Digitaria ciliaris, herbicidal effect grade” value (Digitaria ciliaris) was 4 (Herbicidal ratio of 70% or higher and lower than 90%), the “effect on crop b” value [1] was 5 (Herbicidal ratio of 90% or more (almost completely withered)) and the “d: soybean, effect grade on crop” value (soybean) was 0 (Herbicidal ratio of 5% or lower (almost no effect)). The “J: Alopecurus myosuroides, herbicidal effect grade” value (Alopecurus myosuroides [2]) was 5 (Herbicidal ratio of 90% or more (almost completely withered)), the “O: Chenopodium album, herbicidal effect grade” value (Chenopodium album) was 0 (Herbicidal ratio of 5% or lower (almost no effect)) and the “H: Echinochloa crus-galli var. crus-galli, herbicidal effect grade” value [3] was 4 (Herbicidal ratio of 70% or higher and lower than 90%). The “Herbicidal effect grade, B” value (Scirpus juncoides) was 4 (Herbicidal ratio of 70% or higher and lower than 90%), the “L: Apera spica-venti, herbicidal effect grade” value (Apera spica-venti) was 5 (Herbicidal ratio of 90% or more (almost completely withered)) and the “J: Alopecurus myosuroides, herbicidal effect grade” value (Alopecurus myosuroides [4]; 320 g/ha) was 3 (Herbicidal ratio of 40% or higher and lower than 70%).
